The target of assay [1] is T1, DsbB (Escherichia coli, UniProt P0A6M2, C49V/C8A).
T1 construct: expressed in transfected cells; host or cells: E. coli DHB7935 (HK295 ΔdsbB λatt::malF-lacZ102, φ80::pDSW206dsbBhis6-c-myc)
The experiment in a line: cell-based. The class given is cell-based, E. coli. The settings on record: for EC50 RATIO (EC50 compound 16/EC50): E. coli DHB7935, liquid media.

The target in the next assay is T2, purified EcDsbB (Escherichia coli, UniProt P0A6M2, C49V/C8A).
T2 construct: made in house; host or cells: E. coli
T2 sequence (P0A6M2 whole entry C8A/C49V): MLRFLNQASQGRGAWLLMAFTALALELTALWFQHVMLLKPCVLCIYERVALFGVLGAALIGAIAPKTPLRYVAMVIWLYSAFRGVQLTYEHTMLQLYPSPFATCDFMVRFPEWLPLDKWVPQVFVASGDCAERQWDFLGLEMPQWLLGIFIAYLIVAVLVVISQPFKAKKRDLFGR
The experiment in a line: In vitro assay of purified DsbB (ubiquinone reduction). The class given is biochemical, E. coli. The text has this:
In addition to the in vivo assays of MICs, we have purified DsbB from E. coli and assessed the concentration dependence for inhibition of the enzyme's activity in oxidizing DsbA.
In this assay, we determine the concentration of a compound necessary to reduce the activity of purified DsbB enzyme by 50%. DsbB uses ubiquinone as a co-factor for the generation of disulfide bonds. DsbB oxidizes DsbA and reduces ubiquinone. When it is in the oxidized state, ubiquinone absorbs strongly at 275 nm but it has a diminished absorbance when it is in the reduced state at the same wavelength. Therefore, DsbB activity can be measured by the reduction of ubiquinone and this is assessed by following the decrease of absorbance of ubiquinone at 275 nm. The assay uses 20 μM purified and DTT-reduced DsbA, 20 uM UbQ-5, and 2 nM purified DsbB at pH6.0.
We tested several compounds for their inhibitory effect on EcDsbB-mediated ubiquinone reduction using purified enzymes. In this assay, reduced DsbA provides the source of electrons that are used by EcDsbB to reduce ubiquinone-5. The compounds show dose-dependent inhibition of EcDsbB with half-maximal inhibitory concentrations (IC50) in the low-μM range.

A further assay deals with T3, DsbB-DsbAC33A dimer (Escherichia coli, UniProt P0A6M2, C49V/C8A).
T3 construct: made in house
T3 sequence (P0A6M2 whole entry C8A/C49V): as above
The experiment in a line: Mass spectrometry of DsbB-DsbAC33A complex treated with compound. The assay is classed as binding, E. coli. The procedure: Since the theoretical molecular weight of compound 16.6 is 289.54 Da, the 35.9-Da mass loss may represent a leaving chloride ion. This mass adduct was not observed when either DsbB (oxidized), DsbA (reduced) or DsbAC33A, alone was treated with the compound (FIG. 7C).

For a further assay, the target named is E. coli DsbB (Escherichia coli, UniProt P0A6M2). The experiment in a line: Blue/white beta-galactosidase agar assay, DsbB-based E. coli strain. The assay is classed as cell-based. The settings on record: for MIC for blue color appearance / minimal inhibitory concentration of DsbB: β-galactosidase agar media assay.
Sequence of E. coli DsbB (P0A6M2 whole entry): as the sequence (P0A6M2 whole entry C8A/C49V) above, with A8C, V49C counted along it
Assay [2] deals with DsbB (Escherichia coli, UniProt P0A6M2). Briefly: Oxidation of DsbA by DsbB in growing E. coli (in vivo alkylation assay). The settings on record: liquid minimal medium.
Sequence of DsbB (Escherichia coli, UniProt P0A6M2) (P0A6M2 whole entry): as the sequence (P0A6M2 whole entry C8A/C49V) above, with A8C, V49C counted along it
Description: Second, we measured MICs of the strongest inhibitors in terms of their effects on the oxidation of DsbA by DsbB and on the inhibition of disulfide bond formation in growing liquid cultures. […] The oxidation of DsbA was assessed by a standard alkylation assay for free cysteines in DsbA.
The in vivo chemical alkylation procedure was done as described previously (Chng S et al. Science 337, 1665-1668 (2012)). […] A 500 μl culture aliquot was then transferred to a 1.5 ml tube and precipitated with 50 μl of trichloroacetic acid (TCA, 100%, Mallinckrodt Baker). The mixture was incubated on ice for 10 min and precipitated proteins were pelleted at 18 000 g for 10 min. The protein pellet was washed with 600 μl ice-cold acetone and incubated on ice for 10 min. The protein was re-pelleted by centrifugation at 18 000 g for 3 min and left to air-dry at room temperature. The TCA-precipitated proteins were either directly subjected to alkylation or first reduced before alkylation. For reduction, proteins were incubated in 100 μl 100 mM Tris HCl, pH 8.0 containing 0.1% SDS and 100 mM dithiothreitol (DTT, Invitrogen) for 30 min at room temperature. M63 (500 μl) medium was added and the reduced proteins were re-precipitated with TCA and further washed with acetone. […]
Assay [3] deals with DsbBs from other gram-negative pathogens. The class given is cell-based. As to conditions: agar assay, 384-well plates.
In a further assay the target is T4, VKOR of M. tuberculosis (Mycobacterium tuberculosis, UniProt I6X5W1).
T4 sequence (I6X5W1 1-210): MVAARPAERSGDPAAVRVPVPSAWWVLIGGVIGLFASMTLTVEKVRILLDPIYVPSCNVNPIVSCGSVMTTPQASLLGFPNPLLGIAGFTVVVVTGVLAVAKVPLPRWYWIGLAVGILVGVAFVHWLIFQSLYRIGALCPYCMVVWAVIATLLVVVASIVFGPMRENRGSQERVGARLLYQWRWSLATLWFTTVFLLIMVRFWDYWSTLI
The class given is cell-based. The settings on record: agar assay.

For a further assay, the target named is T5, Erp5 (Homo sapiens, UniProt Q15084).
T5 construct: His; Passam F., Furie B., Furie B.C; (persons named as the source, not a vendor)
T5 sequence (Q15084 20-440): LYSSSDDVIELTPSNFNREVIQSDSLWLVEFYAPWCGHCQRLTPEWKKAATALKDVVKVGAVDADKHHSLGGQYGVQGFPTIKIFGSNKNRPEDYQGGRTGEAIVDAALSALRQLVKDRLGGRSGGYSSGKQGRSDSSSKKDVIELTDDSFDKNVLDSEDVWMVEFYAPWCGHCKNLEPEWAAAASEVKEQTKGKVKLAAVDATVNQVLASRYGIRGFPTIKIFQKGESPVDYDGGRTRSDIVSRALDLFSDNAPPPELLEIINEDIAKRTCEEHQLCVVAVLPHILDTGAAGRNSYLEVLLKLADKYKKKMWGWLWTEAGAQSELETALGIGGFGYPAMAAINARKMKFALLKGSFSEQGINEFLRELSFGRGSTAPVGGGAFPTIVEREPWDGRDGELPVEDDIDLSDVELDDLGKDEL
Briefly: Insulin reductase activity assay, Erp5. The assay is classed as biochemical.

The next assay addresses T6, PDI (Homo sapiens, UniProt P07237).
T6 construct: His; purchased Prospec, East Brunswick, N.J
Briefly: Insulin reductase activity assay, PDI. The assay is classed as biochemical.

The target of the next assay is T7, mouse VKORc1 (Mus musculus, UniProt Q9CRC0).
T7 construct: Solubilized mouse liver microsomes (20 μL) were added to 180 μL of buffer; from tissue; host or cells: mouse liver (solubilized microsomes)
T7 sequence (Q9CRC0 1-161): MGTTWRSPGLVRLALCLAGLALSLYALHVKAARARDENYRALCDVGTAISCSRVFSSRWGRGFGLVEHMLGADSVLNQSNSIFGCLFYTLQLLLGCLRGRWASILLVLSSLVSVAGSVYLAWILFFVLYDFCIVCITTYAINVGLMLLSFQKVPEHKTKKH
Briefly: Assay for VKOR enzymatic activity in mouse liver microsomes. The class given is biochemical.

The target in another assay is T8, Erp57 (Homo sapiens, UniProt P30101).
T8 construct: His; purchased AbCam, Cambridge, Mass
T8 sequence (P30101 25-505): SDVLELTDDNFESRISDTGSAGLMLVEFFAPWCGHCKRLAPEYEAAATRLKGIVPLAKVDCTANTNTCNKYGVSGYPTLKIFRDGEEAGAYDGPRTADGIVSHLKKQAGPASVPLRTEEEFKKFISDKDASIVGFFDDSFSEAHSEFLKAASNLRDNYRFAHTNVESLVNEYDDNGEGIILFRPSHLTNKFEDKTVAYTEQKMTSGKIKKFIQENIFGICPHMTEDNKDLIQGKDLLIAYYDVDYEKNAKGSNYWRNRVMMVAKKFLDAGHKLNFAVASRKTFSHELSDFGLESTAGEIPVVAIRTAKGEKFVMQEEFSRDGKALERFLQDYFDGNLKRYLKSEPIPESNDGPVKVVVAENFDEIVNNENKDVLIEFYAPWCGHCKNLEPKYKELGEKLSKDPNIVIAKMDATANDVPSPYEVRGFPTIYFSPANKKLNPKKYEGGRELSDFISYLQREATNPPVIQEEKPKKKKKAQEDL
Briefly: Insulin reductase activity assay, Erp57. The assay is classed as biochemical.

Another assay addresses T9, Erp72 (Homo sapiens, UniProt P13667).
T9 construct: His; purchased Enzo, Farmingdale, N.Y
T9 sequence (P13667 21-645): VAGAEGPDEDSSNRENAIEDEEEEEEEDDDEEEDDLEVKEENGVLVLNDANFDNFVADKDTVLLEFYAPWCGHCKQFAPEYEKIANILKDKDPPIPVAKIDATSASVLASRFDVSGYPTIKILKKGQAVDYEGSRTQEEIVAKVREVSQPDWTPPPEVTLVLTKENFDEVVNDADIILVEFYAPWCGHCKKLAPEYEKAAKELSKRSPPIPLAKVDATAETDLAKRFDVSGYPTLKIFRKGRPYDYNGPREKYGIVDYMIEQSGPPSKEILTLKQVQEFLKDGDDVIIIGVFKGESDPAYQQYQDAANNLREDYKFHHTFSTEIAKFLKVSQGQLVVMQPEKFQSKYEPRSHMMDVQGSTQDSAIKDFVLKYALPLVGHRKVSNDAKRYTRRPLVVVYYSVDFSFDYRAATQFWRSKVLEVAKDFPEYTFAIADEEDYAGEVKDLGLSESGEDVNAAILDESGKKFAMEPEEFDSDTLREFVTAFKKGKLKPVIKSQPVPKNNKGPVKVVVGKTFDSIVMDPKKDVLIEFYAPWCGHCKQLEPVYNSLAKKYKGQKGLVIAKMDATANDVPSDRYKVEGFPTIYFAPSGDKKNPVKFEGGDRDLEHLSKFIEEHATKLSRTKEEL
Briefly: Insulin reductase activity assay, Erp72. The assay is classed as biochemical.

The next assay has as its system M. tuberculosis H37Rv. The experiment in a line: M. tuberculosis H37Rv growth inhibition (Alamar Blue MIC). The assay is classed as cell-based, Mycobacterium tuberculosis. The settings on record: three different media.
Assay [4] relates to RcsF, a substrate of DsbA. The experiment in a line: Disulfide bond formation in RcsF in growing E. coli liquid culture. The assay is classed as cell-based. As to conditions: liquid minimal medium.

In brackets after ≈: the same amount, converted by molar mass. Entries after “also recorded” stand apart in the source; their conditions may differ. Like-named read-outs stand apart in the source and are kept apart here. Where only a bound is given, the exact number is not on record here.

T1 sequence (P0A6M2 whole entry C8A/C49V): as the sequence (P0A6M2 whole entry C8A/C49V) above
T6 sequence (P07237 18-508, species assumed): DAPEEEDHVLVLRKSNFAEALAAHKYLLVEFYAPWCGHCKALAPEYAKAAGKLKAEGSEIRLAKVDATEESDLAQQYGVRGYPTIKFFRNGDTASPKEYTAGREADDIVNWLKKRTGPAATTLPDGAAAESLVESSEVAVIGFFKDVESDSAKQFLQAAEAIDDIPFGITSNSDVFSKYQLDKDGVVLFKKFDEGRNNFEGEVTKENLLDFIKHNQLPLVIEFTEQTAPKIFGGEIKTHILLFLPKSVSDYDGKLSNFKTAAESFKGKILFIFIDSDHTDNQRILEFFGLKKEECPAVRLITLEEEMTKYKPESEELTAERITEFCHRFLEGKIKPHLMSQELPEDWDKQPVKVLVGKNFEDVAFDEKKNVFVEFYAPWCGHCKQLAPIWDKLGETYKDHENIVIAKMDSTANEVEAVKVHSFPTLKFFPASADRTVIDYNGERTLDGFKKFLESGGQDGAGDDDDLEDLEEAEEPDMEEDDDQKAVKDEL

In the case of `O=c1c(Cl)c(Cl)cnn1Cc1ccccc1Cl` [Compound 16.6], on DsbB [1], the EC50 was determined as 0.16 µM, the “fold more inhibitory than compound 16” value was 23 fold and the “EC50 RATIO (EC50 compound 16/EC50)” value worked out at 23.03. Further, the 50% inhibitory concentration (IC50) on purified EcDsbB (in vitro assay, read-out: IC50) is 0.0189 µM. Moreover, the “adduct on Cys44 of DsbB” value at DsbB-DsbAC33A dimer (high-resolution tandem mass spectrometry, chymotrypsin digest) turned out to be 252.995 Da. The “adduct with the DsbB-DsbAC33A dimer” value on DsbB-DsbAC33A dimer (ion-trap mass spectrometry) came out at 253.6 Da. Further, the “difference between inhibition of DsbB and of VKOR” value at E. coli DsbB (MIC DsbB versus highest concentration without VKOR inhibition) was “equal to or greater than two orders of magnitude”. For the same compound, at E. coli DsbB, the “MIC for blue color appearance / minimal inhibitory concentration of DsbB” value amounted to 0.53 µM. In addition, the “MIC, oxidation of DsbA by DsbB” value on DsbB [2] turned out to be 0.7 µM. The “inhibition of DsbBs of other gram-negative bacteria expressed in E. coli, in words” value in assay [3] is “most effective inhibitor; also recorded: one of the most effective inhibitors”. In addition, the “concentration up to which no inhibition of VKOR was observed” value at VKOR of M. tuberculosis is above 50 µM.
For the compound `CNC(=O)C#CCC1C(=O)c2ccccc2C1=O` [Compound 1], the “inhibition of Erp5 activity” value at Erp5 is given as “inhibited”. In addition, the “inhibition of PDI activity” value on PDI was “inhibited”. At mouse VKORc1, the “inhibition of VKOR activity” value is “inhibited”. Moreover, on Erp57, the “inhibition of Erp57 activity” value is recorded as “inhibited”. Further, the “inhibition of Erp72 activity” value against Erp72 was “inhibited”. Also, in the assay on M. tuberculosis H37Rv, the “effect on growth of M. tuberculosis (in words)” value is recorded as “relatively strong effect in only one of the three media”.
Regarding `O=c1c(Cl)c(Cl)cnn1Cc1ccccc1` [Compound 16], on DsbB [1], the EC50 is 5.1 µM and the “EC50 RATIO (EC50 compound 16/EC50)” value came out at 1.00. At purified EcDsbB (IC50 (μM), Table 9), inhibition was half-maximal at 1.86 µM (IC50). Also, at purified EcDsbB (IC50, purified DsbB), half-maximal inhibition (IC50) was put at 1.85 µM. Moreover, the “MIC, disulfide bond formation in RcsF” value in assay [4] turned out to be 100 µM (≈ 25.5 µg/mL). For the same compound, at E. coli DsbB, the “MIC for blue color appearance / minimal inhibitory concentration of DsbB” value worked out at 5.7 µM. In addition, the “MIC, oxidation of DsbA by DsbB” value on DsbB [2] was determined as 5 µM.

These data come from patent US20170173008A1, “ANTIMICROBIAL AGENTS AND SCREENING METHODS” (PRESIDENT AND FELLOWS OF HARVARD COLLEGE, priority 2014, published 2017).
